# Measured values from PubChem BioAssay (NCI).
#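 Where inhibition never reached the appropriate level, the endpoint shown equals the highest concentration tested. Otherwise, values were interpolated linearly from a five-concentration, 48-hour dose response in 96-well plates. TGI denotes the concentration required for complete inhibition of growth.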
# Legend:
# Assay in all cases: NCI tumour cell line growth inhibition, 48 h
# [1] = tested on: 786-0 renal
# [2] = tested on: A549 NSCLC
# [3] = tested on: ACHN renal
# [4] = tested on: CCRF-CEM leukemia
# [5] = tested on: COLO 205 colon
# [6] = tested on: DLD-1 colon
# [7] = tested on: DMS 273 small cell lung
# [8] = tested on: EKVX NSCLC
# [9] = tested on: HCC-2998 colon
# [10] = tested on: HCT-116 colon
# [11] = tested on: HCT-15 colon
# [12] = tested on: HL-60(TB) leukemia
# [13] = tested on: HOP-18 NSCLC
# [14] = tested on: HOP-62 NSCLC
# [15] = tested on: HOP-92 NSCLC
# [16] = tested on: HT29 colon
# [17] = tested on: KM20L2 colon
# [18] = tested on: LXFL 529 NSCLC
# [19] = tested on: M19-MEL melanoma
# [20] = tested on: MALME-3M melanoma
# [21] = tested on: MOLT-4 leukemia
# [22] = tested on: NCI-H226 lung
# [23] = tested on: NCI-H23 lung
# [24] = tested on: NCI-H460 lung
# [25] = tested on: OVCAR-3 ovarian
# [26] = tested on: OVCAR-5 ovarian
# [27] = tested on: OVCAR-8 ovarian
# [28] = tested on: RPMI-8226 leukemia
# [29] = tested on: RXF 393 renal
# [30] = tested on: RXF-631 renal
# [31] = tested on: SF-268 CNS
# [32] = tested on: SF-295 CNS
# [33] = tested on: SF-539 CNS
# [34] = tested on: SK-MEL-2 melanoma
# [35] = tested on: SK-MEL-28 melanoma
# [36] = tested on: SK-OV-3 ovarian
# [37] = tested on: SN12C renal
# [38] = tested on: SNB-19 CNS
# [39] = tested on: SNB-75 CNS
# [40] = tested on: SNB-78 CNS
# [41] = tested on: SR leukemia
# [42] = tested on: SW-620 colon
# [43] = tested on: TK-10 renal
# [44] = tested on: UACC-257 melanoma
# [45] = tested on: UACC-62 melanoma
# [46] = tested on: UO-31 renal
# [47] = tested on: XF 498 CNS
# [48] = tested on: CAKI-1 renal
# [49] = tested on: DMS 114 small cell lung
# [50] = tested on: IGROV1 ovarian
# [51] = tested on: KM12 colon
# [52] = tested on: LOX IMVI melanoma
# [53] = tested on: MCF7 breast
# [54] = tested on: NCI/ADR-RES ovarian
# [55] = tested on: OVCAR-4 ovarian
# [56] = tested on: SK-MEL-5 melanoma
# [57] = tested on: SN12K1 renal
smiles,measurement,setting,value
Clc1ccc(Nc2nc3ccccc3nc2-c2cccs2)cc1Cl,TGI,[1],> 100 µM
same,TGI,[2],> 100 µM
same,TGI,[3],> 100 µM
same,TGI,[4],> 100 µM
same,TGI,[5],> 100 µM
same,TGI,[6],> 100 µM
same,TGI,[7],> 100 µM
same,TGI,[8],> 100 µM
same,TGI,[9],> 100 µM
same,TGI,[10],> 100 µM
same,TGI,[11],> 100 µM
same,TGI,[12],78.3 µM
same,TGI,[13],> 100 µM
same,TGI,[14],> 100 µM
same,TGI,[15],78.8 µM
same,TGI,[16],> 100 µM
same,TGI,[17],> 100 µM
same,TGI,[18],> 100 µM
same,TGI,[19],> 100 µM
same,TGI,[20],> 100 µM
same,TGI,[21],> 100 µM
same,TGI,[22],> 100 µM
same,TGI,[23],> 100 µM
same,TGI,[24],> 100 µM
same,TGI,[25],> 100 µM
same,TGI,[26],> 100 µM
same,TGI,[27],68.6 µM
same,TGI,[28],> 100 µM
same,TGI,[29],89.2 µM
same,TGI,[30],> 100 µM
same,TGI,[31],> 100 µM
same,TGI,[32],> 100 µM
same,TGI,[33],> 100 µM
same,TGI,[34],> 100 µM
same,TGI,[35],> 100 µM
same,TGI,[36],> 100 µM
same,TGI,[37],> 100 µM
same,TGI,[38],> 100 µM
same,TGI,[39],> 100 µM
same,TGI,[40],> 100 µM
same,TGI,[41],> 100 µM
same,TGI,[42],> 100 µM
same,TGI,[43],> 100 µM
same,TGI,[44],> 100 µM
same,TGI,[45],> 100 µM
same,TGI,[46],> 100 µM
same,TGI,[47],> 100 µM
Nc1ccn(C2C=C(CO)C(O)C2O)c(=O)c1 (stereo not drawn),TGI,[2],> 625 µM
same,TGI,[48],> 625 µM
same,TGI,[5],> 625 µM
same,TGI,[6],> 62.5 µM
same,TGI,[49],> 625 µM
same,TGI,[7],> 625 µM
same,TGI,[9],> 625 µM
same,TGI,[10],> 625 µM
same,TGI,[11],> 625 µM
same,TGI,[12],> 625 µM
same,TGI,[13],> 625 µM
same,TGI,[14],> 625 µM
same,TGI,[15],> 625 µM
same,TGI,[16],> 625 µM
same,TGI,[50],> 625 µM
same,TGI,[51],> 625 µM
same,TGI,[17],> 625 µM
same,TGI,[52],> 625 µM
same,TGI,[19],> 625 µM
same,TGI,[53],> 625 µM
same,TGI,[22],> 625 µM
same,TGI,[24],> 625 µM
same,TGI,[54],> 625 µM
same,TGI,[25],> 625 µM
same,TGI,[55],> 625 µM
same,TGI,[27],> 625 µM
same,TGI,[28],> 625 µM
same,TGI,[31],> 625 µM
same,TGI,[32],> 625 µM
same,TGI,[33],> 625 µM
same,TGI,[34],> 625 µM
same,TGI,[56],> 625 µM
same,TGI,[36],> 625 µM
same,TGI,[37],> 625 µM
same,TGI,[57],> 625 µM
same,TGI,[38],> 625 µM
same,TGI,[39],> 625 µM
same,TGI,[40],> 625 µM
same,TGI,[42],> 625 µM
same,TGI,[45],> 625 µM
same,TGI,[46],> 625 µM
